Experiment [1] has as its system HT1080 FSP1-KO cells reconstituted with either FSP1-WT or FSP1-G2A. In words: FIN56-induced ferroptosis in FSP1-KO cells reconstituted with FSP1-WT or FSP1-G2A. The class given is cell-based, human. The following applies: iFSP1 10 μM, CPBA 100 μM. The method, then: The following HT1080 fibrosarcoma cell lines were generated using CRISPR/Cas9 technology, as previously described (Doll et al., 2019): HT1080 GPX4-knockout (KO) cells (maintained in the presence of 100 μM α-tocopherol); HT1080 GPX4 knockout cells overexpressing FSP1 (GPX4-KO/FSP1-OE); GPX4-KO cells overexpressing FSP1 and re-expressing GPX4 (GPX4-KO/FSP1-OE/GPX4-OE); HT1080 FSP1-WT or FSP1-KO cells; and HT1080 FSP1-KO cells reconstituted with either FSP1-WT or FSP1-G2A. LOX-IMVI (BRAF V600E heterozygous human melanoma cells) expressing either the Venus mock vector or FSP1-Venus (Doll et al., 2019) were grown in RPMI-1640 supplemented with 10% FCS, 2 mM L-glutamine and Pen/Strep.
In order to study the effect of FSP1 membrane targeting on iFSP1 or CPBA-dependent ferroptosis sensitization, HT1080 FSP1-KO cells reconstituted with either FSP1-WT or the membrane binding-incompetent myristoylation mutant FSP1-G2A were incubated with serial FIN56-dilutions in the absence or presence of the DMSO solvent control, iFSP1 (10 μM), or CPBA (100 μM) (see FIG. 18A).

The next experiment deals with T1, human FSP1 (Homo sapiens, UniProt Q9BRQ8).
T1 construct: His6 (N, cleaved yes); made in house; host or cells: Escherichia coli BL21 pG-Tf2
T1 sequence (Q9BRQ8 1-373): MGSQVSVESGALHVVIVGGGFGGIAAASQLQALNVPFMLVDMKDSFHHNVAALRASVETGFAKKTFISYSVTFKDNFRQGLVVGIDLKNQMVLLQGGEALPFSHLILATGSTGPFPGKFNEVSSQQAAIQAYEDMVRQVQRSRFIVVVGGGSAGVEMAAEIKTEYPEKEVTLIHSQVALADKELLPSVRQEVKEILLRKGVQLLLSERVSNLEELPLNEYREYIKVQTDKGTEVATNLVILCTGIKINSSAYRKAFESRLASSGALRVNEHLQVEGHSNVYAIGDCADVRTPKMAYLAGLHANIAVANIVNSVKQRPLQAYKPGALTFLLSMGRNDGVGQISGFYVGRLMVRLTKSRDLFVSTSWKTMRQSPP
In words: Biolayer interferometry binding kinetics, human FSP1. To be noted: 25° C. The method, then:
Purified, AviTag-fused mFSP1 or hFSP1 were enzymatically biotinylated with the E. coli biotin ligase BirA. To this end, FSP1 proteins (48 μM) were incubated with purified GST-BirA in the presence of ATP and D-biotin (Sigma Aldrich) as described (Fairhead et al., 2015). GST-BirA was removed using glutathione Sepharose 4 Fast Flow (GE Healthcare), and samples were dialyzed against TNM (pH 7.4) to remove free biotin.
Biotinylated, AviTag-fused mFSP1 or hFSP1 (1.5 μM in TNM buffer supplemented with 0.005% (v/v) Tween-20) was immobilized on streptavidin-coated biosensors (Super Streptavidin/SSA Dip and Read Biosensors, ForteBio). The sensors were then quenched with 27 μM biocytin (Sigma Aldrich), and binding kinetics were measured at 25° C. on a ForteBio Octet Red 96e instrument. Dissociation was initiated after 90 s. Reference sensors were quenched with 27 μM biocytin. Raw data was double referenced, and a global exponential regression 1:1 model was applied for kinetic analyses. Data are mean values±S.D. of at least n=4 measurements. KD, dissociation constant; Kon, on-rate constant; Koff, off-rate constant.
We also determined the CPBA and iFSP1 on-rate, off-rate and dissociation constants, which are associated with the binding and unbinding reaction of target and inhibitor. […]

With `O=C(Nc1ccccc1C(=O)O)c1ccc(Oc2ccc(C(=O)Nc3ccccc3C(=O)O)cc2)cc1` [CPBA, 2-[[4-[4-[(2-carboxyphenyl)carbamoyl]phenoxy]benzoyl]amino]-benzoic acid], in experiment [1], the “ferroptosis sensitization depending on FSP1 membrane targeting” value is reported as “sensitize FSP1-proficient cells to ferroptosis only if FSP1 can be targeted to membranes”. On human FSP1, the “affinity for human FSP1” value was “the affinity of iFSP1 for human FSP1 exceeds the affinity of CPBA for human FSP1”.
On to `Cc1ccc(-c2c(C#N)c(N)n3c(nc4ccccc43)c2C#N)cc1` [iFSP1, reference compound], for which the “ferroptosis sensitization depending on FSP1 membrane targeting” value in experiment [1] was “sensitize FSP1-proficient cells to ferroptosis only if FSP1 can be targeted to membranes”. The “affinity for human FSP1” value on human FSP1 is recorded as “the affinity of iFSP1 for human FSP1 exceeds the affinity of CPBA for human FSP1”.
